Literature values as cited in US20130236595A1, “FOOD PRODUCT PROVIDING SUSTAINED BLOOD LEVELS OF EXOGENOUS SUBSTANCES” (NESTEC S.A., priority 2003, published 2013).
Entries after “also recorded” stand apart in the source; their conditions may differ.

How the values were obtained:
[1] = caffeine in blood plasma

For `Cn1c(=O)c2c(ncn2C)n(C)c1=O` [caffeine], the “threshold value for stimulation” value [1] is listed as “about 2 mg/l”, the “time of peak in caffeine level in blood” value (after a cup of coffee is consumed) is listed as “after about an hour; also recorded: after one hour” and the half-life of caffeine (in adults) is listed as 3 to 7 h.
